Results: patent US20230121547A1, “A COMBINATION THERAPY WITH NIROGACESTAT AND A BCMA-DIRECTED THERAPY AND USES THEREOF” (SpringWorks Therapeutics Inc., priority 2020, published 2023)

Test: physchem
Conditions: organic solvent or mixture, thermodynamic from solid
Protocol: Weighed samples of material were treated with aliquots of specified solvents at ambient temperature. Samples were typically sonicated between additions to facilitate dissolution. Complete dissolution was observed through visual inspection. Solubility was calculated based on the total amount of solvent added to achieve complete dissolution and may be greater than the value reported due to incremental solvent addition and the inherent kinetics of dissolution. If dissolution was not observed, values are reported as “less than”. If dissolution was observed upon the first addition of solvent, values are reported as “greater than”.

For Br.Br.CCC[C@H](N[C@H]1CCc2cc(F)cc(F)c2C1)C(=O)Nc1cn(C(C)(C)CNCC(C)(C)C)cn1 [nirogacestat dihydrobromide, (S)-2-(((S)-6,8-difluoro-1,2,3,4-tetrahydronaphthalen-2-yl)amino)-N-(1-(2-methyl-1-(neopentylamino)propan-2-yl)-1H-imidazol-4-yl)pentanamide], the solubility was < 1000 µg/mL.
